Assays:
A431 cells = test: A431 growth assay (2% FBS); format: cell-based; conditions: Homo sapiens, A-431, read-out: A431 growth (2% FBS) IC50
[1] = biological target: T1, chimeric receptor containing the EGFR extracellular domain and intracellular HER2 kinase domain (Homo sapiens, UniProt P04626); test: EGF Receptor-HER2 chimeric receptor assay in whole cells (ELISA); format: cell-based; conditions: read-out: HER-2 kinase IC50
T1 construct: fused on or other part: EGFR ectodomain + HER2 intracellular part, ATP-site indolinones: HER2's kinase
T1 sequence (P04626 720-1255 limits assumed, change not shown): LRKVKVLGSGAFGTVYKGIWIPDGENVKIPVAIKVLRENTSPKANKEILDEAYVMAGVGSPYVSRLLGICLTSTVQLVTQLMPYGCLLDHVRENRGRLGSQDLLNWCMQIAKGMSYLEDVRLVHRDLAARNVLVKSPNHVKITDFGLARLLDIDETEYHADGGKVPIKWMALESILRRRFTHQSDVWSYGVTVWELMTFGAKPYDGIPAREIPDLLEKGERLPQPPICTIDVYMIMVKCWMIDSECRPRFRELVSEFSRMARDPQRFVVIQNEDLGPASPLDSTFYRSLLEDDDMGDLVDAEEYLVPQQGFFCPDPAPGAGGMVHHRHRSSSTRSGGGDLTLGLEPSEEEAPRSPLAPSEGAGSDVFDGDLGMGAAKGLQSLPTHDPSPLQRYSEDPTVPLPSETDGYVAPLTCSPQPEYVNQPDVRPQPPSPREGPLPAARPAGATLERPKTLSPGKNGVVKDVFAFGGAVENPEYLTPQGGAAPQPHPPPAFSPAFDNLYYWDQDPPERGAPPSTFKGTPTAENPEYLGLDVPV
How it was run: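 NIH3T3 cells overexpressing EGFR-extracellular/HER2-kinase chimera, seeded in 0.5% serum for ~40 h, were pretreated with compound (1% final DMSO) 2 h at 37 °C, then stimulated with 100 nM EGF for 5 min. Lysates captured on anti-EGFR plates; phosphotyrosine detected by anti-Ptyr/HRP ELISA at 410 nm as percent inhibition.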

| Compound | IC50 (A431 cells) [µM] | IC50 [1] [µM] |
| --- | --- | --- |
| COc1cc(C)c(C=C2C(=O)Nc3ccc(Cl)cc32)cc1C(C)C [Example 9, 5-Chloro-3-(5-isopropyl-4-methoxy-2-methylbenzylidene)-1,3-dihydroindol-2-one] | 17.3 | > 100 |
| COc1c(C(C)C)cc(/C=C2/C(=O)Nc3cc(O)ccc32)cc1C(C)C [Example 4, 3-(3,5-Diisopropyl-4-methoxybenzylidene)-6-hydroxy-1,3-dihydroindol-2-one] | 5.1 | 5.8 |
| COc1c(C(C)C)cc(/C=C2/C(=O)Nc3cc(NC(C)=O)ccc32)cc1C(C)C [Example 3, N-[3-(3,5-Diisopropyl-4-methoxybenzylidene)-2-oxo-2,3-dihydro-1H-indol-6-yl]-acetamide] | 2.2 | 6.4 |
| COc1c(C)cc(/C=C2/C(=O)Nc3ccc(Cl)cc32)cc1C [Example 21, 5-Chloro-3-(4-methoxy-3,5-dimethylbenzylidene)-1,3-dihydroindol-2-one] | 15.3 | 11.8 |
| COc1ccc2c(c1)/C(=C\c1cc(C(C)C)c(OC)c(C(C)C)c1)C(=O)N2 [Example 17, 3-(3,5-Diisopropyl-4-methoxybenzylidene)-5-methoxy-1,3-dihydroindol-2-one] | 4.3 | 7.8 |
| COc1ccc(/C=C2/C(=O)Nc3ccccc32)cc1C1CCCCC1 [Example 12, 3-(3-Cyclohexyl-4-methoxybenzylidene)-1,3-dihydroindol-2-one] | 7.9 | > 100 |
| COc1ccc(/C=C2/C(=O)Nc3ccc(F)cc32)cc1C1CCCC1 [Example 11, 3-(3-Cyclopentyl-4-methoxybenzylidene)-5-fluoro-1,3-dihydroindol-2-one] | 12.5 | 57.3 |
| CC(C)c1cc(/C=C2/C(=O)Nc3ccc(Cl)cc32)cc(C(C)C)c1OCCN1CCOCC1 [Example 24, 5-chloro-3-[3,5-diisopropyl-4-(2-morpholin-4-ylethoxy)-benzylidene]-1,3-dihydroindol-2-one] | 4.5 | 13.6 |
| COC(=O)c1ccc2c(c1)/C(=C\c1cc(C(C)C)c(OC)c(C(C)C)c1)C(=O)N2 [Example 6, 3-(3,5-Diisopropyl-4-methoxybenzylidene)-2-oxo-2,3-dihydro-1H-indole-5-carboxylic acid methyl ester] | 2.9 | 15.3 |

Results, then the compound that gave them:

| IC50 (A431 cells) [µM] | IC50 [1] [µM] | Compound |
| --- | --- | --- |
| 5.5 | 59.9 | CCOc1cccc(-c2cc(C=C3C(=O)Nc4ccccc43)ccc2OC)c1 [Example 46, 3-(3′-Ethoxy-6-methoxybiphenyl-3-ylmethylene)-1,3-dihydroindol-2-one] |
| 5.9 | > 100 | COc1ccc(/C=C2/C(=O)Nc3ccc(Cl)cc32)cc1-c1cccnc1 [Example 60] |
| 5.6 | 17.1 | COc1ccc(C=C2C(=O)Nc3ccccc32)cc1-c1cccc(NC(C)=O)c1 [Example 29, N-[2′-Methoxy-5′-(2-oxo-1,2-dihydroindol-3-ylidenemethyl)-biphenyl-3-yl]-acetamide] |
| 14.2 | 36.6 | CC(=O)Nc1ccc2c(c1)NC(=O)/C2=C/c1ccc(OCCN2CCOCC2)c(-c2cccs2)c1 [Example 40, N-{3-[4-(2-Morpholin-4-ylethoxy)-3-thiophen-2-ylbenzylidene]-2-oxo-2,3-dihydro-1H-indol-6-yl}-acetamide] |
| 9.2 | 33.7 | COc1cc(/C=C2/C(=O)Nc3ccccc32)c(-c2cccs2)cc1OC [Example 39, 3-(4,5-Dimethoxy-2-thiophen-2-ylbenzylidene)-1,3-dihydroindol-2-one] |
| 5.8 | > 100 | CC(C)c1cc(/C=C2/C(=O)Nc3ccc(Br)cc32)cc(C(C)C)c1OCCN1CCOCC1 [Example 57, 5-Bromo-3-[3,5-diisopropyl-4-(2-morpholin-4-ylethoxy)benzylidene]-1,3-dihydroindol-2-one] |
| 3 | 15.3 | COc1ccc(/C=C2/C(=O)Nc3ccc(CCN4CCOCC4)cc32)cc1-c1ccsc1 [Example 26, 3-(4-Methoxy-3-thiophen-3-ylbenzylidene)-5-(2-morpholin-4-yl-ethyl)-1,3-dihydroindol-2-one] |
| 6 | > 100 | COc1cc(/C=C2/C(=O)Nc3ccccc32)c(-c2ccc3ccccc3c2)cc1OC [Example 62, 3-(4,5-Dimethoxy-2-naphthalen-2-ylbenzylidene)-1,3-dihydroindol-2-one] |
| 6.7 | 20.2 | CC(=O)Nc1ccc2c(c1)NC(=O)/C2=C\c1ccc2c(c1)CCC(C)(C)O2 [Example 33, N-[3-(2,2-Dimethylchroman-6-ylmethylene)-2-oxo-2,3-dihydro-1H-indol-6-yl]-acetamide] |
| 4.4 | > 100 | CC1(C)CCc2cc(C=C3C(=O)Nc4ccc(Br)cc43)ccc2O1 (racemic) [Example 34, 5-Bromo-3-(2,2-dimethylchroman-6-ylmethylene)-1,3-dihydroindol-2-one] |
| 10.5 | > 100 | CCOc1cccc(-c2cc(OC)c(OC)cc2/C=C2/C(=O)Nc3ccccc32)c1 [Example 58, 3-(3′-Ethoxy-4,5-dimethoxybiphenyl-2-ylmethylene)-1,3-dihydroindol-2-one] |

From patent US6855730B2, “3-methylidenyl-2-indolinone modulators of protein kinase” (Sugen, Inc., priority 1998, dated 2005)
